Data taken from BigSolDB 2.1.

Work on `CC[C@H](C)C(=O)O[C@H]1C[C@@H](C)C=C2C=C[C@H](C)[C@H](CC[C@@H]3C[C@@H](O)CC(=O)O3)[C@H]21` yielded a solubility (mole fraction) (in 2-butanone, 285.1 K) of 0.00752, a solubility (mole fraction) (in 2-butanone, 288.3 K) of 0.00878 and a solubility (mole fraction) (in 2-butanone, 291.2 K) of 0.00918. It also gave a solubility (mole fraction) (in 2-butanone, 294.6 K) of 0.0111, a solubility (mole fraction) (in 2-butanone, 297.2 K) of 0.0115 and a solubility (mole fraction) (in 2-butanone, 300.3 K) of 0.0132. It also gave a solubility (mole fraction) (in 2-butanone, 303.1 K) of 0.0147, a solubility (mole fraction) (in 2-butanone, 306.3 K) of 0.0175 and a solubility (mole fraction) (in 2-butanone, 309.4 K) of 0.0197. For the same compound, the solubility (mole fraction) (in 2-butanone, 312.2 K) was 0.0219, the solubility (mole fraction) (in acetone, 285.1 K) was 0.00831 and the solubility (mole fraction) (in acetone, 288.3 K) was 0.00936. The solubility (mole fraction) (in acetone, 291.2 K) was 0.0104, the solubility (mole fraction) (in acetone, 294.6 K) was 0.0118 and the solubility (mole fraction) (in acetone, 297.2 K) was 0.013. For the same compound, the solubility (mole fraction) (in acetone, 300.3 K) was 0.0146, the solubility (mole fraction) (in acetone, 303.1 K) was 0.0163 and the solubility (mole fraction) (in acetone, 306.3 K) was 0.0183. It also gave a solubility (mole fraction) (in acetone, 309.4 K) of 0.0206, a solubility (mole fraction) (in acetone, 312.2 K) of 0.0228 and a solubility (mole fraction) (in ethyl acetate, 285.1 K) of 0.00417. For the same compound, the solubility (mole fraction) (in ethyl acetate, 288.3 K) was 0.0047, the solubility (mole fraction) (in ethyl acetate, 291.2 K) was 0.00517 and the solubility (mole fraction) (in ethyl acetate, 294.6 K) was 0.00586. It also gave a solubility (mole fraction) (in ethyl acetate, 297.2 K) of 0.00656, a solubility (mole fraction) (in ethyl acetate, 300.3 K) of 0.00706 and a solubility (mole fraction) (in ethyl acetate, 303.1 K) of 0.00778. For the same compound, the solubility (mole fraction) (in ethyl acetate, 306.3 K) was 0.0087, the solubility (mole fraction) (in ethyl acetate, 309.4 K) was 0.00967 and the solubility (mole fraction) (in ethyl acetate, 312.2 K) was 0.0108. For the same compound, the solubility (mole fraction) (in isobutyl acetate, 285.1 K) was 0.00345, the solubility (mole fraction) (in isobutyl acetate, 288.3 K) was 0.00383 and the solubility (mole fraction) (in isobutyl acetate, 291.2 K) was 0.00422. The solubility (mole fraction) (in isobutyl acetate, 294.6 K) was 0.0047, the solubility (mole fraction) (in isobutyl acetate, 297.2 K) was 0.00504 and the solubility (mole fraction) (in isobutyl acetate, 300.3 K) was 0.0057. For the same compound, the solubility (mole fraction) (in isobutyl acetate, 303.1 K) was 0.00627, the solubility (mole fraction) (in isobutyl acetate, 306.3 K) was 0.00702 and the solubility (mole fraction) (in isobutyl acetate, 309.4 K) was 0.00777. The solubility (mole fraction) (in isobutyl acetate, 312.2 K) was 0.00864, the solubility (mole fraction) (in isopropyl acetate, 285.1 K) was 0.00335 and the solubility (mole fraction) (in isopropyl acetate, 288.3 K) was 0.00372. For the same compound, the solubility (mole fraction) (in isopropyl acetate, 291.2 K) was 0.00412, the solubility (mole fraction) (in isopropyl acetate, 294.6 K) was 0.00459 and the solubility (mole fraction) (in isopropyl acetate, 297.2 K) was 0.00497. The solubility (mole fraction) (in isopropyl acetate, 300.3 K) was 0.00553, the solubility (mole fraction) (in isopropyl acetate, 303.1 K) was 0.00606 and the solubility (mole fraction) (in isopropyl acetate, 306.3 K) was 0.00677. The solubility (mole fraction) (in isopropyl acetate, 309.4 K) was 0.00756, the solubility (mole fraction) (in isopropyl acetate, 312.2 K) was 0.00832 and the solubility (mole fraction) (in methyl acetate, 285.1 K) was 0.00309. It also gave a solubility (mole fraction) (in methyl acetate, 288.3 K) of 0.0034, a solubility (mole fraction) (in methyl acetate, 291.2 K) of 0.00376 and a solubility (mole fraction) (in methyl acetate, 294.6 K) of 0.00417. It also gave a solubility (mole fraction) (in methyl acetate, 297.2 K) of 0.00447, a solubility (mole fraction) (in methyl acetate, 300.3 K) of 0.00515 and a solubility (mole fraction) (in methyl acetate, 303.1 K) of 0.00543. It also gave a solubility (mole fraction) (in methyl acetate, 306.3 K) of 0.00619, a solubility (mole fraction) (in methyl acetate, 309.4 K) of 0.00674 and a solubility (mole fraction) (in methyl acetate, 312.2 K) of 0.00746. The solubility (mole fraction) (in n-butyl acetate, 285.1 K) was 0.00407, the solubility (mole fraction) (in n-butyl acetate, 288.3 K) was 0.00452 and the solubility (mole fraction) (in n-butyl acetate, 291.2 K) was 0.00494. The solubility (mole fraction) (in n-butyl acetate, 294.6 K) was 0.00557, the solubility (mole fraction) (in n-butyl acetate, 297.2 K) was 0.00611 and the solubility (mole fraction) (in n-butyl acetate, 300.3 K) was 0.00679. The solubility (mole fraction) (in n-butyl acetate, 303.1 K) was 0.00748, the solubility (mole fraction) (in n-butyl acetate, 306.3 K) was 0.00836 and the solubility (mole fraction) (in n-butyl acetate, 309.4 K) was 0.00931. For the same compound, the solubility (mole fraction) (in n-butyl acetate, 312.2 K) was 0.0103, the solubility (mole fraction) (in n-propyl acetate, 285.1 K) was 0.00395 and the solubility (mole fraction) (in n-propyl acetate, 288.3 K) was 0.00438. It also gave a solubility (mole fraction) (in n-propyl acetate, 291.2 K) of 0.00481, a solubility (mole fraction) (in n-propyl acetate, 294.6 K) of 0.00544 and a solubility (mole fraction) (in n-propyl acetate, 297.2 K) of 0.00587. For the same compound, the solubility (mole fraction) (in n-propyl acetate, 300.3 K) was 0.00658, the solubility (mole fraction) (in n-propyl acetate, 303.1 K) was 0.00724 and the solubility (mole fraction) (in n-propyl acetate, 306.3 K) was 0.00803. It also gave a solubility (mole fraction) (in n-propyl acetate, 309.4 K) of 0.00901, a solubility (mole fraction) (in n-propyl acetate, 312.2 K) of 0.00997 and a solubility (mole fraction) (in sec-butyl acetate, 285.1 K) of 0.00365. For the same compound, the solubility (mole fraction) (in sec-butyl acetate, 288.3 K) was 0.00401, the solubility (mole fraction) (in sec-butyl acetate, 291.2 K) was 0.00446 and the solubility (mole fraction) (in sec-butyl acetate, 294.6 K) was 0.005. The solubility (mole fraction) (in sec-butyl acetate, 297.2 K) was 0.00545, the solubility (mole fraction) (in sec-butyl acetate, 300.3 K) was 0.00606 and the solubility (mole fraction) (in sec-butyl acetate, 303.1 K) was 0.00666. For the same compound, the solubility (mole fraction) (in sec-butyl acetate, 306.3 K) was 0.00745, the solubility (mole fraction) (in sec-butyl acetate, 309.4 K) was 0.0083 and the solubility (mole fraction) (in sec-butyl acetate, 312.2 K) was 0.00915. The solubility (mole fraction) (in tert-butyl acetate, 285.1 K) was 0.00275, the solubility (mole fraction) (in tert-butyl acetate, 288.3 K) was 0.00314 and the solubility (mole fraction) (in tert-butyl acetate, 291.2 K) was 0.00346. It also gave a solubility (mole fraction) (in tert-butyl acetate, 294.6 K) of 0.00386, a solubility (mole fraction) (in tert-butyl acetate, 297.2 K) of 0.0042 and a solubility (mole fraction) (in tert-butyl acetate, 300.3 K) of 0.00479. It also gave a solubility (mole fraction) (in tert-butyl acetate, 303.1 K) of 0.0051, a solubility (mole fraction) (in tert-butyl acetate, 306.3 K) of 0.00569 and a solubility (mole fraction) (in tert-butyl acetate, 309.4 K) of 0.00638. The solubility (mole fraction) (in tert-butyl acetate, 312.2 K) was 0.00693.
